“And” between values parts separate entries of the source, which are not always exact repeats. Equal entries are not always repeated.
What was measured:
Format in all cases: biochemical
MMP-7 = biological target: T1, MMP-7 (Homo sapiens, UniProt P09237); assay: MMP-7 OmniMMP peptide assay; details: OmniMMP substrate peptide
T1 construct: purchased R & D systems; host or cells: NS0 cells
T1 sequence (P09237 95-267): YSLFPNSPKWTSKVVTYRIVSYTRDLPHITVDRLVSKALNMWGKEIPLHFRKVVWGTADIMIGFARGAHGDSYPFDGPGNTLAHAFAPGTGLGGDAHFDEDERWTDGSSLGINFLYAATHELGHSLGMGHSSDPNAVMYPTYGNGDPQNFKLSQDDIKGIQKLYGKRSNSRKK
Experimental: (§1) Compounds 5 and 7 were synthesized as previously reported. Full-length human proMMP-9 was produced by recombinant expression in Sf9 insect cells and purified by gelatin-Sepharose chromatography as previously described. Stable full-length proMMP-9 monomers and trimers were separated by glycerol gradient ultracentrifugation as previously described. ProMMP-9 mixture and the separated monomers and trimers were activated by incubation with the catalytic domain of MMP-3 (cat. No. 444217, Merck Millipore, Darmstadt, Germany) as previously described. […] ADAM17/TACE (Sf 21 (baculovirus)-derived, R & D systems, Minneapolis, MO, USA) was diluted and evaluated in 25 mM Tris, 2.5 μM ZnCl2, 0.005% Brij-35, pH 9.0. All stocks of the compounds were evaluated for the presence of endotoxin using the EndoZyme II assay (Hyglos bioMérieux, Bernried am Starnberger See, Germany). […]
(§2) To determine the inhibition of gelatinolytic activity, we used a previously optimized gelatin degradation assay. […] Next, dye-quenched gelatin (DQ™-gelatin, Invitrogen, Carlsbad, CA, USA) was added at a final concentration of 2.5 µg/mL and the increase in fluorescence over time was measured with the CLARIOstar microplate reader (BMG Labtech, Ortenberg, Germany). […]

[1] = biological target: T2, recombinant human MMP-9 trimers (Homo sapiens, UniProt P14780); assay: Gelatin degradation assay, recombinant MMP-9 trimers
T2 construct: made in house; host or cells: Sf9 insect cells
T2 sequence (P14780 107-707 limits assumed): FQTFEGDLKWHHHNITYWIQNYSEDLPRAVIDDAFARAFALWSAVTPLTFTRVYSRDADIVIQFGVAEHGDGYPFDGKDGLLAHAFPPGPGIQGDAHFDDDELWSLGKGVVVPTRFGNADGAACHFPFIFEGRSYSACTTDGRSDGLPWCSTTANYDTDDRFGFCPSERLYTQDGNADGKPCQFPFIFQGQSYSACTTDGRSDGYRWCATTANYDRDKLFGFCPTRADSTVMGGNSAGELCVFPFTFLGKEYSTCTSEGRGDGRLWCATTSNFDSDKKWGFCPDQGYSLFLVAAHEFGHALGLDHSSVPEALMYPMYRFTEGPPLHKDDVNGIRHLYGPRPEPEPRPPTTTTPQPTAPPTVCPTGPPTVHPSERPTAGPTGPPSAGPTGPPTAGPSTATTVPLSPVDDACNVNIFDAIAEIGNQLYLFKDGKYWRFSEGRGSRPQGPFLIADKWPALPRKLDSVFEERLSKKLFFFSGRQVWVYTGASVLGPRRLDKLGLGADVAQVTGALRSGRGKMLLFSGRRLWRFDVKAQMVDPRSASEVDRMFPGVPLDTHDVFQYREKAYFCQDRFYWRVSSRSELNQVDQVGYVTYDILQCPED
Experimental: (§3) Compounds 5 and 7 were synthesized as previously reported. Full-length human proMMP-9 was produced by recombinant expression in Sf9 insect cells and purified by gelatin-Sepharose chromatography as previously described. Stable full-length proMMP-9 monomers and trimers were separated by glycerol gradient ultracentrifugation as previously described. ProMMP-9 mixture and the separated monomers and trimers were activated by incubation with the catalytic domain of MMP-3 (cat. No. 444217, Merck Millipore, Darmstadt, Germany) as previously described. Activation of proMMP-9 was confirmed by a band shift of ±10 kDa, corresponding to the removal of the auto-inhibitory propeptide domain and by detection of gelatinolytic activity with a previously described gelatin degradation assay. MMP-9 monomers and trimers purified from human neutrophils were purchased (Cat. No. 444,231 and 444232, Sigma-Aldrich, St. Louis, MO, USA). Examples of sample purities and activations can be found in Supplementary Figure S1. Recombinant human proMMP-2 (CHO cell-derived), proMMP-3 (NS0 cell-derived), proMMP-7 (NS0 cell-derived) and proMMP-8 (NS0 cell-derived) were purchased from R & D systems (Minneapolis, MN, USA), dissolved in assay buffer (150 mM NaCl, 5 mM CaCl2, 0.01% Tween-20, 50 mM Tris, pH 7.4) to a concentration of 100 µg/mL and activated by incubation with 1 mM p-aminophenylmercuric acetate for, respectively, 1h, 6h, 2h and 1h. Activation of MMPs was confirmed by a band shift of approximately 10 kDa, corresponding to the removal of the propeptide domain. MMP-14/MT1-MMP (NS0 cell-derived) was also purchased from R & D systems (Minneapolis, MN, USA) and activated by incubation with recombinant human furin (cat. No. 1503-SE-010, R & D systems, Minneapolis, MO, USA) in activation buffer (50 mM Tris, 1 mM CaCl2, 0.5% Brij-35, pH 9) for 1.5 h and activity was tested in assay buffer (50 mM Tris, 3 mM CaCl2, 1 µM ZnCl2, pH 8.5). Active human neutrophil elastase (NE) was purchased from Abcam (Cambridge, UK) and for activity assays of NE the assay buffer was replaced by 200 mM Tris, pH 8.8. ADAM17/TACE (Sf 21 (baculovirus)-derived, R & D systems, Minneapolis, MO, USA) was diluted and evaluated in 25 mM Tris, 2.5 μM ZnCl2, 0.005% Brij-35, pH 9.0. All stocks of the compounds were evaluated for the presence of endotoxin using the EndoZyme II assay (Hyglos bioMérieux, Bernried am Starnberger See, Germany). Endotoxin levels in all concentrated stocks (2.5 mg/mL) were below the accepted limit of 0.5 EU/mL.
(§4) To determine the inhibition of gelatinolytic activity, we used a previously optimized gelatin degradation assay. Activated MMP-9, activated MMP-2, neutrophil elastase or supernatants of stimulated neutrophils, were incubated with different concentrations of inhibitors and incubated for 30 min at 37 °C. Next, dye-quenched gelatin (DQ™-gelatin, Invitrogen, Carlsbad, CA, USA) was added at a final concentration of 2.5 µg/mL and the increase in fluorescence over time was measured with the CLARIOstar microplate reader (BMG Labtech, Ortenberg, Germany). For other MMPs, the OmniMMP substrate peptide (Mca-PLGL-Dpa-AR-NH2, cat. no. BML-P126-0001, Enzo Life Sciences, Farmingdale, NY, USA) was used at a final concentration of 2.5 µg/mL. For ADAM17 the fluorogenic peptide Mca-PLAQAV-Dpa-RSSSR-NH2 (ES003, R & D systems, Minneapolis, MO, USA) and for neutrophil elastase the fluorogenic substrate MeOSuc-AAPV-AMC (cat. no. 324740, Merck Millipore, Darmstadt, Germany) were used. Proteolytic activity was determined by linear regression of the fluorescence curve and the percentage inhibition was calculated through comparison with the positive control (no inhibitors). When testing supernatants from human neutrophils, the assay was performed in the presence of 20 µM neutrophil elastase inhibitor (Elastase Inhibitor IV, Calbiochem, Darmstadt, Germany).

TACE/ADAM17 = biological target: T3, TACE/ADAM17 (Homo sapiens, UniProt P78536); assay: TACE/ADAM17 fluorogenic peptide assay; details: Mca-PLAQAV-Dpa-RSSSR-NH2 fluorogenic peptide, tested up to an inhibitor concentration of 50 µM
T3 construct: purchased R & D systems; host or cells: Sf 21 (baculovirus)
T3 sequence (P78536 215-824): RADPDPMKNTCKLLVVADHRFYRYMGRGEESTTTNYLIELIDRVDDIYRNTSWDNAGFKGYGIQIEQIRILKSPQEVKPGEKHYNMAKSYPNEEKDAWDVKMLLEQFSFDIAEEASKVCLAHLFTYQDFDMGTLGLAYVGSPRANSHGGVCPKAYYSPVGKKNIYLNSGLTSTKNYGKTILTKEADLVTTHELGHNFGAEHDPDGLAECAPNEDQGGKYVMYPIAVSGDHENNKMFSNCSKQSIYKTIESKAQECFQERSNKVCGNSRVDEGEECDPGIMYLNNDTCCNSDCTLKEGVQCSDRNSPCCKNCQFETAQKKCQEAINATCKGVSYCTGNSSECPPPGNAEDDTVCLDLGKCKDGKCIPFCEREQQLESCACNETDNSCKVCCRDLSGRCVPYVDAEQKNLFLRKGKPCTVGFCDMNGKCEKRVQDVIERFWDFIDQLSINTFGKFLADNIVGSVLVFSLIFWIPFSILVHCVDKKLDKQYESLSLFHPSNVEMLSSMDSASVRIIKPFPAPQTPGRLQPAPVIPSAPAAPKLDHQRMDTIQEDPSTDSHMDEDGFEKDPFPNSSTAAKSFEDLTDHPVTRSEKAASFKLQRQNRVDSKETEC
Experimental: as §3, with “Active human neutrophil elastase (NE) was purchased from Abcam (Cambridge, UK) and for activity assays of NE the assay buffer was replaced by 200 mM Tris, pH 8.8.” left out, “Endotoxin levels in all concentrated stocks (2.5 mg/mL) were below the accepted limit of 0.5 EU/mL.” left out
To determine the inhibition of gelatinolytic activity, we used a previously optimized gelatin degradation assay. […] Next, dye-quenched gelatin (DQ™-gelatin, Invitrogen, Carlsbad, CA, USA) was added at a final concentration of 2.5 µg/mL and the increase in fluorescence over time was measured with the CLARIOstar microplate reader (BMG Labtech, Ortenberg, Germany). […] Proteolytic activity was determined by linear regression of the fluorescence curve and the percentage inhibition was calculated through comparison with the positive control (no inhibitors). […]

MMP-2 = biological target: T4, MMP-2 (Homo sapiens, UniProt P08253); assay: MMP-2 gelatin degradation assay; details: gelatin substrate
T4 construct: purchased R & D systems; host or cells: CHO cells
T4 sequence (P08253 110-660): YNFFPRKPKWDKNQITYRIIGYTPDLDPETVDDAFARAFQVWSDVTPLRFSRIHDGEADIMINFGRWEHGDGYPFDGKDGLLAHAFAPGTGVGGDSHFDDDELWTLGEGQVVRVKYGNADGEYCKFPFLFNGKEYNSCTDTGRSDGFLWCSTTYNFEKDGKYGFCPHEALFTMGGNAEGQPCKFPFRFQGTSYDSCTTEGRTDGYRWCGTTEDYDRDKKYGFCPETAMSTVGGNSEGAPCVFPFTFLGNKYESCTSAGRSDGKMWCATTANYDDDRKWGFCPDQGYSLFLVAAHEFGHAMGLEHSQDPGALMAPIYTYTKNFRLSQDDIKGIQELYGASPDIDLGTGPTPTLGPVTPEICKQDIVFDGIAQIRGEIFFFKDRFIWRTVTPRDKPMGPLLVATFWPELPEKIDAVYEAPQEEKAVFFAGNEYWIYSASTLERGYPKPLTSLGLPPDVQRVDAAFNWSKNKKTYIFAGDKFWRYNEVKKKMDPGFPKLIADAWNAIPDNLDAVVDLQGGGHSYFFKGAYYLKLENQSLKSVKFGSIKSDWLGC
Experimental: as §1, §2

[2] = biological target: T2, recombinant human MMP-9 trimers; assay: Fluorogenic peptide (OmniMMP) degradation assay, recombinant MMP-9 trimers; details: recombinant human MMP-9 (Sf9) tri
Experimental: as §3, §4

[3] = recombinant human MMP-9 (Sf9) tri, gelatin degradation

SMILES: CC(C)[C@H](C(=O)O)N(CCNC(=O)c1cccc(C(=O)NCCN([C@@H](C(=O)O)C(C)C)S(=O)(=O)c2ccc(-c3ccccc3)cc2)c1)S(=O)(=O)c1ccc(-c2ccccc2)cc1 [Compound 7]
- IC50 (MMP-7): > 10000 nM
- IC50 [1, 3]: 0.18 nM
- IC75 [1, 3]: 18 nM
- fold more potent at inhibiting gelatinolysis by trimeric versus monomeric MMP-9 ([1]; recombinant human MMP-9, gelatin substrate): over 1000 fold
- IC50 (TACE/ADAM17): no inhibition ^†
- IC50 (TACE/ADAM17; listed as compound 7): not inhibited
- IC50 (MMP-2): 4.8 nM
- IC25 [2]: 0.0017 nM
- IC50 [2]: ~0.1 nM and 0.1 nM
- IC75 [2]: 6.0 nM

SMILES: CC(C)[C@H](C(=O)O)N(CCNC(=O)c1ccccc1)S(=O)(=O)c1ccc(-c2ccccc2)cc1 [Compound 5]
- IC50 (MMP-7): > 10000 nM
- IC25 [1, 3]: 526 nM
- IC50 [1, 3]: 2250 nM
- IC75 [1, 3]: 9660 nM
- IC50 (TACE/ADAM17): no inhibition ^†
- IC50 (TACE/ADAM17; listed as compound 5): not inhibited
- IC50 (MMP-2): 1720 nM
- IC25 [2]: 237 nM
- IC50 [2]: 724 nM
- IC75 [2]: 2211 nM

Source: article PMC7408547, “Bivalent Inhibitor with Selectivity for Trimeric MMP-9 Amplifies Neutrophil Chemotaxis and Enables Functional Studies on MMP-9 Proteoforms” (Cells, 2020)
